# Laboratory results taken from patent publication US8933056B2, “Soft protease inhibitors and pro-soft forms thereof” (Trustees of Tufts College, priority 2005, dated 2015).
# Read-outs that look alike come from different tables or passages of the source.
# Assays:
# DP-IV = DP-IV (Sus scrofa (Pig), UniProt P22411); assay: DPP IV inhibition: thioxamide v. oxoamide; format: biochemical, porcine; conditions: for Inactivation Index: IC50 pH 8.0 to pH 2.0
# Method: The inhibitory activity of a compound may be tested easily. […] A compound is then screened for its ability to inhibit the protease activity of DP-IV with respect to a […] substrate. […] Briefly, a reaction containing 50 micromol sodium Hepes (pH 7.8), 10 micromol Ala-Pro-p-nitroanilide, 6 milliunits of DP-IV, and 2% (vol/vol) dimethylformamide in a total volume of 1.0 mL. The reaction was initiated by the addition of enzyme and reaction rates were measured at 25 C; formation of reaction product (para-nitroanilide) in the presence and absence of a test compound can be detected photometrically, e.g., at 410 nm.
# Proteasome = Proteasome (Homo sapiens, UniProt P28074); assay: X-boroLeu proteasome inhibition: thioxamide v. oxoamide; format: biochemical; conditions: IC50 ph 7.6 to ph 2.0
# [1] = Inactivation at pH 7.8 followed by 1H NMR; format: physicochemical; conditions: sodium phosphate buffer; pH jump from pH 2 to pH 7.8, 1H NMR integrals fit to single exponential; read-out: half-life for the inactivation reaction
# DPPIV [2] = target: T1, DPPIV (Homo sapiens (Human), UniProt P27487); assay: physchem; conditions: pH 7.8
# Method: DPP IV inhibition was measured at various times after the pH jump and the IC50 values were plotted as a function of time. […] This value was fit to a single exponential.
# DP8 = DP8 (Homo sapiens (Human), UniProt Q6V1X1); assay: Selectivity for dipeptidyl peptidase isoforms, DP8; format: biochemical; conditions: for DP8 Ratio: IC50 pH 7.8 to pH 2
# Method: (§1) The inhibitor solution is prepared by dissolving 3-5 mg of inhibitor in pH 2 solution (0.01 N HCl), such that the concentration of the solution is equal to 1 mg/10 mL. A 10 μL sample of this solution is then added to 990 μL of pH 8 buffer (0.1 M HEPES, 0.14 M NaCl), and the solution is allowed to stand at room temperature overnight.
# (§2) The substrate solution is prepared by dissolving 2.0 mg of L-alanyl-L-proline-para-nitroanilide into 20 mL of pH 8 buffer.
# (§3) 250 μL of enzyme solution is added to well #B1 to #H1, #A2 to #H2, and #A3 to #H3 of a 96 well plate, while well #A1 receives 250 μL of pH 8 buffer instead of enzyme solution.
# (§4) A 1:10 dilution is then performed by adding inhibitor solution to #A5 and the solution is mixed well before transferring 10 μL of this solution from #A5 to #B5. The solution in #B5 is then mixed well before transferring 10 μL of this solution from #B5 to #C5. The solution in #C5 is then mixed well before transferring 10 μL of this solution from #C5 to #D5. The solution in #D5 is then mixed well before transferring 10 μL of this solution from #D5 to #E5. The solution in #E5 is then mixed well before transferring 10 μL of this solution from #E5 to #F5. The solution in #F5 is then mixed well before transferring 10 μL of this solution from #F5 to #G5. The solution in #G5 is then mixed well before transferring 10 μL of this solution from #G5 to #H5.
# (§5) A 30 μL aliquot is then transferred from #H5 to #H3 for row H, and the contents are mixed well. The analogous procedure is repeated for rows G, F, E, D, C, B, and A sequentially. The plate is then shaken on a plate shaker for 5 min before allowing the plate to incubate at room temperature for an additional 5 min.
# (§6) Once the plate has been allowed to incubate, 30 μL of substrate is added to each well except well #A1. […] The absorbance is then immediately read at a wavelength of 410 nm.
# (§7) In this example, the assay is conducted for DPIV and DP8 or DP9. The ratio of IC50 values for each tested compound is calculated in order to determine the selectivity for the DPIV isoform. […]
# DPPIV [3] = target: T1, DPPIV; assay: DPIV inhibition assay (Examples 2 and 3); format: biochemical; conditions: for DPPIV Ratio: IC50 pH 7.8 to pH 2
# Method: as §1, §2, §3, §4, §5, §6, §7
# DP9 = DP9 (Homo sapiens (Human), UniProt Q86TI2); assay: Selectivity for dipeptidyl peptidase isoforms, DP9; format: biochemical; conditions: for DP9 Ratio: IC50 pH 7.8 to pH 2
# Method: as §1, §2, §3, §4, §5, §6, §7
# [4] = pH 2.0, read-out: IC50 (pH 2.0)
# [5] = pH 8.0, read-out: IC50 (pH 8.0)
# [6] = pH 7.8, read-out: IC50s DP8 pH 7.8
# [7] = pH 2, read-out: IC50s DPPIV pH 2
# [8] = pH 7.8, read-out: IC50s DPPIV pH 7.8
# [9] = pH 7.8, read-out: IC50s DP9 pH 7.8
# Chain of Proteasome (P28074 60-263 limits assumed): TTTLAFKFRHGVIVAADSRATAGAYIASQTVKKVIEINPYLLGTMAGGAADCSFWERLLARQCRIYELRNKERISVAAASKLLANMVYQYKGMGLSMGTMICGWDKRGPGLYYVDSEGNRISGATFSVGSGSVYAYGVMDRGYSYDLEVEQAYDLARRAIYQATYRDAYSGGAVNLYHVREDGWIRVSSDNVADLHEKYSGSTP
# Chain of DP-IV (P22411 whole entry): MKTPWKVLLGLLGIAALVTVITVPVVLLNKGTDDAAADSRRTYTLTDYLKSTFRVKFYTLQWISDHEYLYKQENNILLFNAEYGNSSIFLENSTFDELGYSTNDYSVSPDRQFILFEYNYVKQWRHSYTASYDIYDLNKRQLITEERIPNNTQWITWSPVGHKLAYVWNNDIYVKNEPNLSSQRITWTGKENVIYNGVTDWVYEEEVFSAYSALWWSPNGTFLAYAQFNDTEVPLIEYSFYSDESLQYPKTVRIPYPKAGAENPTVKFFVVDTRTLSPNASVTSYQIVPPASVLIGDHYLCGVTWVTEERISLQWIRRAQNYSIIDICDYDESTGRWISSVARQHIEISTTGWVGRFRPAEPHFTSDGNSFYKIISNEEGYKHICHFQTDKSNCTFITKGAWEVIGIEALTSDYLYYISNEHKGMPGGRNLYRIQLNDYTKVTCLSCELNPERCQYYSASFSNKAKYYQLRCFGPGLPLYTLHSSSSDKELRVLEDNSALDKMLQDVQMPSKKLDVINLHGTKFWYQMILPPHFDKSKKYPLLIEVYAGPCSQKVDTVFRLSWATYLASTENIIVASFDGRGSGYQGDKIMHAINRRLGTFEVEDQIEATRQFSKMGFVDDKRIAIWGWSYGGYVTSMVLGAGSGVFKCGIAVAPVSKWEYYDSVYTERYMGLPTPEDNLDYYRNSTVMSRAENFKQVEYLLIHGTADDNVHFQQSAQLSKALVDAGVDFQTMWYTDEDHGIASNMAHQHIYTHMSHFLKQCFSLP
# Chain of DP8 (Q6V1X1 whole entry, species assumed, canonical isoform): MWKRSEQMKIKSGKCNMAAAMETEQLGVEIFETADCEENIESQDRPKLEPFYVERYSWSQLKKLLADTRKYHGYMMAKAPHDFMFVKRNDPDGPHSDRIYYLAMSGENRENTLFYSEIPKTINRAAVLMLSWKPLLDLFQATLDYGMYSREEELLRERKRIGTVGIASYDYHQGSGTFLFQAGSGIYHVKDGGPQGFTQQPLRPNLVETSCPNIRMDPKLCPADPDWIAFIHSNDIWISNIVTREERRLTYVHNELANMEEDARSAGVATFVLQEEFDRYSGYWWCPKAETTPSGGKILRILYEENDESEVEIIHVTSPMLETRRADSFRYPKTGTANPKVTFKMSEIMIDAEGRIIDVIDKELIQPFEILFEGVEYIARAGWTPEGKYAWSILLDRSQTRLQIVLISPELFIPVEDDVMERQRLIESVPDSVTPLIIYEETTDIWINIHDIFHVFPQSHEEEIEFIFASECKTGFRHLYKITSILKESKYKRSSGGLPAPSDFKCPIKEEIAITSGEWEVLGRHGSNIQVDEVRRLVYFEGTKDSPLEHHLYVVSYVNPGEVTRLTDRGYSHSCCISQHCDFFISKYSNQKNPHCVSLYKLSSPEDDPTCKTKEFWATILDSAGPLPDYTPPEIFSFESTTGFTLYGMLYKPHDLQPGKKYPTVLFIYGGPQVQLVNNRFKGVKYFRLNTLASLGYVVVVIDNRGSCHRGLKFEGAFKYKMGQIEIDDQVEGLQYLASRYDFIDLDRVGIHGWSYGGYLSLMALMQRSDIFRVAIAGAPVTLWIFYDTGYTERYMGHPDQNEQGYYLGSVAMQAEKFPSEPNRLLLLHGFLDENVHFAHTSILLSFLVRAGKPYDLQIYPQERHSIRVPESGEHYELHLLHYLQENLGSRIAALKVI
# Chain of DP9 (Q86TI2 whole entry, species assumed, canonical isoform): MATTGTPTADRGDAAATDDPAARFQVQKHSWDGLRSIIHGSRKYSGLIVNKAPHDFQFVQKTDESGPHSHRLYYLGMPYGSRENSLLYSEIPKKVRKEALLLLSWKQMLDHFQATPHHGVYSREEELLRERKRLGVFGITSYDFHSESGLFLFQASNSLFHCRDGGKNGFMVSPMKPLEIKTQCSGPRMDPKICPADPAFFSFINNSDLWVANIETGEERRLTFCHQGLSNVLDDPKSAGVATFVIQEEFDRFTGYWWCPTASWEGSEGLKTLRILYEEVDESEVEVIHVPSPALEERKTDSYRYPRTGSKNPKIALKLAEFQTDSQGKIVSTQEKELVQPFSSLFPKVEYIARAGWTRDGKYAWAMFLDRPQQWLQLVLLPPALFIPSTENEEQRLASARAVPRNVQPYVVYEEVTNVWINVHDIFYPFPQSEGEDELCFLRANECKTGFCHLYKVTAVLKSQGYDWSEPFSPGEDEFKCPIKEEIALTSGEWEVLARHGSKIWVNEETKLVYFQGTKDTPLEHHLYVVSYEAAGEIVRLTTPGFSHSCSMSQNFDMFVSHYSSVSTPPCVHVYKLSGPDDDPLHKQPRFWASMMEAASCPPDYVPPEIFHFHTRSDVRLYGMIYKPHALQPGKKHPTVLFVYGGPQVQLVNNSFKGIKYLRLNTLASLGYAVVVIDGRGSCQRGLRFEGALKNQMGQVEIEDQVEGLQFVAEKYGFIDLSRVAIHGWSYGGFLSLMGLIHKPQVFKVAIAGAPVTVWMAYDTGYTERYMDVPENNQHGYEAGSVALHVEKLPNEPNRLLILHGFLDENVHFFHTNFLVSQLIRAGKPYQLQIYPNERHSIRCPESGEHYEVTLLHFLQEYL
# T1 sequence (P27487 whole entry, species assumed): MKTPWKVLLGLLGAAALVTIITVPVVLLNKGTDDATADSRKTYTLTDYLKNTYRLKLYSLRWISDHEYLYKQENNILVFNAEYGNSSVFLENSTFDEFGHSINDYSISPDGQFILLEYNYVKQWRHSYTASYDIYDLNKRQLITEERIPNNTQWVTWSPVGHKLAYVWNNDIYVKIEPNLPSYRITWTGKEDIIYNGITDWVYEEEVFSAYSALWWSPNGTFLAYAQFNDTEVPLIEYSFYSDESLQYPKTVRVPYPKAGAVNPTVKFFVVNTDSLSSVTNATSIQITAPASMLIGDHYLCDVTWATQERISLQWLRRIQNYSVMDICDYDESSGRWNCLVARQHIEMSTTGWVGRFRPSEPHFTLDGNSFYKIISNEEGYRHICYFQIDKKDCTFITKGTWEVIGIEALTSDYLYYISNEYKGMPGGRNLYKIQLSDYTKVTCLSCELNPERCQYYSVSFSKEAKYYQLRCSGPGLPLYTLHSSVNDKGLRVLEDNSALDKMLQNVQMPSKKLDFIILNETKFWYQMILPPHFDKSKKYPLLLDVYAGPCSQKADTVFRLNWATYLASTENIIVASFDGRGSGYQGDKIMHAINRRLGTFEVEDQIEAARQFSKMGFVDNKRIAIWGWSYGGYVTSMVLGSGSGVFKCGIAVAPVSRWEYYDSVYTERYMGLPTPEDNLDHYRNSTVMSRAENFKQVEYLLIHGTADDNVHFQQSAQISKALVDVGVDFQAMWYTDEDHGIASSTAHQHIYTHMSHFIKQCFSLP
Molecule,Inactivation Index (DP-IV),IC50 (DP-IV; [4]) [nM],IC50 (DP-IV; [5]) [nM],further results
N[C@@H](CCCC(=O)O)C(=S)N1CCC[C@H]1B(O)O [Aad-boroPro Thioxamide],"12,000",1.6,19000,–
"N[C@@H](CCCC(=O)O)C(=O)N1CCC[C@H]1B(O)O [Aad-boroPro, reference compound]","1,600",4.5,7400,–
C[C@H](NC(=S)[C@H](C)N)B(O)O [Ala-boroAla Thioxamide],1.2,6500,7700,–
"C[C@H](NC(=O)[C@H](C)N)B(O)O [Ala-boroAla, reference compound]",7.0,63,440,–
CC(C)C[C@H](NC(=S)[C@H](C)N)B(O)O [Ala-boroLeu Thioxamide],–,–,–,Inactivation Index (Proteasome): 110
"CC(C)C[C@H](NC(=O)[C@H](C)N)B(O)O [Ala-boroLeu, reference compound]",–,–,–,Inactivation Index (Proteasome): 3.2
C[C@H](N)C(=S)N1CCC[C@H]1B(O)O [Ala-boroPro Thioxamide],–,–,–,half-life [1]: 60 min; half-life (DPPIV [2]): 47 min
"C[C@H](N)C(=O)N1CCC[C@H]1B(O)O [Ala-boroPro, reference compound]",–,–,–,half-life [1]: 30 min
N=C(N)NCCC[C@H](N)C(=S)N1CCC[C@H]1B(O)O [Arg-boroPro Thioxamide],–,1.2,–,"IC50 (pH 8.0) (DP-IV; pH 8.0, result in words): No inhibition"
"N=C(N)NCCC[C@H](N)C(=O)N1CCC[C@H]1B(O)O [Arg-boroPro, reference compound]","3,900",1.8,7100,–
CC(C)C[C@H](NC(=S)[C@@H](N)CC(=O)O)B(O)O [Asp-boroLeu Thioxamide],–,–,–,Inactivation Index (Proteasome): 2.2
N[C@@H](CC(=O)O)C(=S)N1CCC[C@H]1B(O)O [Asp-boroPro Thioxamide],"1,700",17,28000,–
N[C@H](C(=S)N1CCC[C@H]1B(O)O)C1CCCCC1 [Chg-boroPro Thioxamide],"2,300",4,9000,–
N[C@@H](CCC(=O)O)C(=S)N1CCC[C@H]1B(O)O [Glu-boroPro Thioxamide],190,4.6,890,"DP8 Ratio (DP8): 130; Ratio DPP8 to DPIV (pH 2) (DP8; pH 2): 3.4; IC50 (DP8; pH 2, read-out: IC50s DP8 pH 2): 16 nM; IC50 (DP8; [6]): 2000 nM; DPPIV Ratio (DPPIV [3]): 190; IC50 (DPPIV [3]; [7]): 4.6 nM; IC50 (DPPIV [3]; [8]): 890 nM; DP9 Ratio (DP9): 180; Ratio DP9 To DPIV (pH 2) (DP9; pH 2): 1.9; IC50 (DP9; pH 2, read-out: IC50s DP9 pH 2): 8.7 nM; IC50 (DP9; [9]): 1800 nM"
"N[C@@H](CCC(=O)O)C(=O)N1CCC[C@H]1B(O)O [Glu-boroPro, reference compound]",500,6,3000,–
CC(C)C[C@H](NC(=S)CN)B(O)O [Gly-boroLeu Thioxamide],–,–,–,Inactivation Index (Proteasome): 20
"CC(C)C[C@H](NC(=O)CN)B(O)O [Gly-boroLeu, reference compound]",–,–,–,Inactivation Index (Proteasome): 11
NCC(=S)N1CCC[C@H]1B(O)O [Gly-boroPro Thioxamide],630,3,1900,–

Molecule,Inactivation Index (DP-IV),IC50 (DP-IV; [4]) [nM],IC50 (DP-IV; [5]) [nM],further results
"NCC(=O)N1CCC[C@H]1B(O)O [Gly-boroPro, reference compound]","7,000",1,7000,–
OB(O)[C@@H]1CCCN1C(=S)CNCc1ccccc1 [N-(Benzyl)-Gly-boroPro Thioxamide],7.1,24,170,–
"O=C(CNCc1ccccc1)N1CCC[C@H]1B(O)O [N-(Benzyl)-Gly-boroPro, reference compound]","7,300",9.5,69000,–
CC(C)C[C@H](NC(=S)CNC(=O)c1cnccn1)B(O)O [N-(Pyrazine-2-carbonyl)-Gly-boroLeu Thioxamide],–,–,–,Inactivation Index (Proteasome): 3.8
CC(C)C[C@H](NC(=O)CNC(=S)c1cnccn1)B(O)O [N-(Pyrazine-2-carbothio)-Gly-boroLeu],–,–,–,Inactivation Index (Proteasome): 4.5
OB(O)[C@@H]1CCCN1C(=S)CNC12CC3CC(CC(O)(C3)C1)C2 [NVP-LAF237 analogue Thioxamide],250,160,40000,–
"O=C(CNC12CC3CC(CC(O)(C3)C1)C2)N1CCC[C@H]1B(O)O [NVP-LAF237 analogue, reference compound]",1.7,42,72,–
"CC(C)C[C@H](NC(=O)[C@@H](N)Cc1ccccc1)B(O)O [Phe-boroLeu (free Velcade), Phe-boroLeu, reference compound]",–,–,–,Inactivation Index (Proteasome): 7.5
CC(C)C[C@H](NC(=S)[C@@H](N)Cc1ccccc1)B(O)O [Phe-boroLeu Thioxamide],–,–,–,Inactivation Index (Proteasome): 20
OB(O)[C@@H]1CCCN1C(=S)[C@@H]1CCCN1 [Pro-boroPro Thioxamide],"1,100",6.4,7000,"DP8 Ratio (DP8): 720; Ratio DPP8 to DPIV (pH 2) (DP8; pH 2): 3.2; IC50 (DP8; pH 2, read-out: IC50s DP8 pH 2): 2.5 nM; IC50 (DP8; [6]): 1800 nM; IC50 (DPPIV [3]; [7]): 0.75 nM; DP9 Ratio (DP9): 180; Ratio DP9 To DPIV (pH 2) (DP9; pH 2): 2.5; IC50 (DP9; pH 2, read-out: IC50s DP9 pH 2): 1.9 nM; IC50 (DP9; [9]): 340 nM"
"O=C([C@@H]1CCCN1)N1CCC[C@H]1B(O)O [Pro-boroPro, reference compound]","21,000",1.1,23000,–
CC(C)C[C@H](NC(=S)CNC(=S)c1cnccn1)B(O)O [Pyz-Gly-boroLeu Perthioxamide],–,–,–,Inactivation Index (Proteasome): 620
N[C@@H](Cc1c[nH]c2ccccc12)C(=S)N1CCC[C@H]1B(O)O [Trp-boroPro Thioxamide],440,1.6,700,–
"N[C@@H](Cc1c[nH]c2ccccc12)C(=O)N1CCC[C@H]1B(O)O [Trp-boroPro, reference compound]",1500,2,3000,–
CC(C)[C@H](N)C(=S)N[C@@H](C)B(O)O [Val-boroAla Thioxamide],3.0,73,220,–
Chg-boroPro [reference compound],380,1,380,–
Pro-boroAla (thioxam),–,–,–,"DP8 Ratio (DP8): 2.2; Ratio DPP8 to DPIV (pH 2) (DP8; pH 2): 1.8; IC50 (DP8; pH 2, read-out: IC50s DP8 pH 2): 140 nM; IC50 (DP8; [6]): 310 nM; DPPIV Ratio (DPPIV [3]): 4.1; IC50 (DPPIV [3]; [7]): 76 nM; IC50 (DPPIV [3]; [8]): 310 nM; DP9 Ratio (DP9): 1.3; Ratio DP9 To DPIV (pH 2) (DP9; pH 2): 1.1; IC50 (DP9; pH 2, read-out: IC50s DP9 pH 2): 85 nM; IC50 (DP9; [9]): 110 nM"
